From patent US12195427B2, “MASP-2 inhibitors and methods of use” (priority 2018, dated 2025)

Biological target: MASP-2 CCP2-SP (Homo sapiens (Human), UniProt O00187)
Test: MASP-2 co-crystallization, X-ray crystallography and structure analysis (H-bonds, van der Waals contacts);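 on Ligand-pharmacophore element distance, pharmacophore element C2: distance from averaged pharmacophore element to bound ligand; missing value means element absent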;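 on Ligand-pharmacophore element distance, pharmacophore element C3: distance from averaged pharmacophore element to bound ligand; missing value means element absent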;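 on Ligand-pharmacophore element distance, pharmacophore element C4: distance from averaged pharmacophore element to bound ligand; missing value means element absent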;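 on Ligand-pharmacophore element distance, pharmacophore element C5: distance from averaged pharmacophore element to bound ligand; missing value means element absent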
Parameters: van der Waals contact distance, MASP-2 HIS 483 atom CD2 / van der Waals contact distance, MASP-2 HIS 483 atom NE2 / van der Waals contact distance, SER 654 C to compound atom / van der Waals contact distance, SER 654 O to compound atom / van der Waals contact distance, TRP 655 C to compound atom / van der Waals contact distance, MASP-2 GLY 528 atom CA / van der Waals contact distance TRP 655 atom CZ3 / van der Waals contact distance TRP 655 atom N / van der Waals contact distance TRP 655 atom CE3 / van der Waals contact distance GLY 656 atom C / van der Waals contact distance GLY 656 atom CA / van der Waals contact distance GLY 656 atom O / van der Waals contact distance, MASP-2 TYR 607 atom CD1 / van der Waals contact distance, MASP-2 PRO 606 atom O / d(C3,CA1) / d(CA1,N1)2 / d(H4,O1) / d(H4,O2) / d(O1,O2) / d(CA1,O2) / d(CA6,O1) / d(CA6,O2) / d(CA1,C5) / d(O2,H3) / d(N2,C2) / d(CA5,N2) / d(N2,C4) / d(N2,C6) / d(N2,CA3) / d(N2,O3) / d(O4,H2): unit not given beside the values
Summary of the method: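 Inhibitor complexes were obtained by soaking crystals of E. coli-expressed human MASP-2 CCP2-SP constructs, then flash-cooling in liquid nitrogen. Structures solved by molecular replacement (1Q3X search model) from synchrotron diffraction; where several poses existed, only one was analyzed, and nonbonded contacts listed can include H-bonds.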

[1] = Table A5-1 pharmacophore: distance between elements, S2/S1 region
[2] = Table A5-2 pharmacophore distance, S3/S4 region
[3] = Table A7-1, between pharmacophore elements of the bound compound

Sequence of MASP-2 CCP2-SP (O00187 445-686): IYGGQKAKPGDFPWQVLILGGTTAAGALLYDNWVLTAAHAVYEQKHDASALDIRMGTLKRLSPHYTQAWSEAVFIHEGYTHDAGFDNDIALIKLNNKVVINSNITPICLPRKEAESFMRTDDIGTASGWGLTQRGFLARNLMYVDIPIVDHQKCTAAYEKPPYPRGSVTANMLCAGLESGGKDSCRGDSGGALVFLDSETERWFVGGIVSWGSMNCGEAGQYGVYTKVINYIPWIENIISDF
Sequence of MASP-2 CCP2-SP (O00187 364-432 partner): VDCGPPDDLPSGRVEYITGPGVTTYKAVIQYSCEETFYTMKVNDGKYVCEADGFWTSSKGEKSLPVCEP

Cc1nc(N)ccc1CNC(=O)[C@H](C)NC(=O)[C@H]1C[C@@H](c2ccccc2)CCN1C [compound 1441, (2R,4S)—N—((S)-1-(((6-Amino-2-methylpyridin-3-yl)methyl)amino)-1-oxopropan-2-yl)-1-methyl-4-phenylpiperidine-2-carboxamide]
H-bond distance to MASP-2 ASP 627 atom OD2 (Table A1 (H-Bonds), ASP 627 OD2): 3.23
H-bond distance to MASP-2 GLY 656 atom N (Table A1 (H-Bonds), GLY 656 N): 3.2
H-bond distance to MASP-2 SER 628 atom O (Table A1 (H-Bonds), SER 628 O): 3.06
H-bond distance to MASP-2 SER 654 atom O (Table A1 (H-Bonds), SER 654 O): 3.07
H-bond distance to MASP-2 SER 657 atom O (Table A1 (H-Bonds), SER 657 O): 2.91
van der Waals contact distance, MASP-2 amino acid atom to compound atom (Table A2): 3.8
van der Waals contact distance, MASP-2 HIS 483 atom CD2 (Table A2-1): 3.74
van der Waals contact distance, MASP-2 HIS 483 atom NE2 (Table A2-1): 3.61
van der Waals contact distance, MASP-2 GLY 528 atom CA (Table A2-2): 3.71
van der Waals contact distance, MASP-2 PHE 529 atom CE1 (Table A2-3): 3.85
van der Waals contact distance, MASP-2 amino acid atom to compound atom (Table A2-9, ARG 630, AA atoms CG, CZ): 3.87
van der Waals contact distance, VAL 653 CG1 to compound atom (Table A2-11): 3.38
van der Waals contact distance, SER 654 O to compound atom (Table A2-12): 3.85
van der Waals contact distance, TRP 655 CA to compound atom (Table A2-12): 3.34
van der Waals contact distance TRP 655 atom CE3 (Table A2-13, MASP-2 TRP 655 CE3, compound atom in line below): 3.65
van der Waals contact distance TRP 655 atom CZ3 (Table A2-13, MASP-2 TRP 655 CZ3): 3.75
Ligand-pharmacophore element distance, pharmacophore element C2 (Table A4-1, element C2): 0.54
Ligand-pharmacophore element distance, pharmacophore element C3 (Table A4-1, element C3): 0.17
Ligand-pharmacophore element distance, pharmacophore element C4 (Table A4-1, element C4): 0
Ligand-pharmacophore element distance, pharmacophore element C5 (Table A4-1, element C5): 0
Ligand-pharmacophore element distance, pharmacophore element C6 (Table A4-1, element C6): 0
Ligand-pharmacophore element distance, pharmacophore element C7 (Table A4-1, element C7): 0
Ligand-pharmacophore element distance, pharmacophore element CA1 (Table A4-1, element CA1): 0.64
Ligand-pharmacophore element distance, pharmacophore element CA2 (Table A4-1, element CA2): 0.64
Ligand-pharmacophore element distance, pharmacophore element CA3 (Table A4-1, element CA3): 0
Ligand-pharmacophore element distance, pharmacophore element CA4 (Table A4-1, element CA4): 0
Ligand-pharmacophore element distance, pharmacophore element CA5 (Table A4-1, element CA5): 0
Ligand-pharmacophore element distance, pharmacophore element CA6 (Table A4-1, element CA6): 0
d(C3,CA1) [1]: 2.85
d(CA1,N1)2 [1]: 1.37
d(CA1,O1) [1]: 4.27
d(CA1,O2) [1]: 3.96
d(H4,O1) [1]: 4.29
d(H4,O2) [1]: 3.79
d(O1,O2) [1]: 3.29
d(N2,C2) [2]: 1.45
d(N2,CA2) [2]: 5.75
d(O2,H3) [2]: 4.15
d(O2,N2) [2]: 2.72
a(C3, CA1, O1) (Table A6-1 pharmacophore angle): 148.89
a(CA1, O1, O2) (Table A6-1 pharmacophore angle): 108.56
a(O1, O2, H4) (Table A6-1 pharmacophore angle): 132.47
a(N1, CA1, O1) b) (Table A6-1 pharmacophore angle, Methyl-amino-pyridine compounds): 173.13
a(O1, O2, H3) (Table A6-2 pharmacophore angle): 145.43
a(O1, O2, N2) (Table A6-2 pharmacophore angle): 144.23
a(O2, N2, C2) (Table A6-2 pharmacophore angle): 131.10
a(O2, N2, CA2) (Table A6-2 pharmacophore angle): 156.32
Pharmacophore torsion angle a(C3, CA1, O1, H4) [3]: 21.88
Pharmacophore torsion angle a(H4, O1, O2, H3) [3]: 50.54
Pharmacophore torsion angle a(H4, O1, O2, N2) [3]: 141.99
Pharmacophore torsion angle a(N1, CA1, O1, H4) [3]: −6.82
Pharmacophore torsion angle a(O1, H4, O2, CA1) [3]: −80.01
Pharmacophore torsion angle a(O1, O2, N2, C2) [3]: 117.29
Pharmacophore torsion angle a(O1, O2, N2, CA2) (Table A7-2, between pharmacophore elements of the bound compound): 126.16
